# Assay results taken from patent US20230181536A1, “ANTICANCER COMBINATION THERAPY WITH N-(1-ACRYLOYL-AZETIDIN-3-YL)-2-((1H-INDAZOL-3-YL)AMINO)METHYL)-1H-IMIDAZOLE-5-CARBOXAMIDE INHIBITOR OF KRAS-G12C” (TAIHO PHARMACEUTICAL CO., LTD., priority 2020, published 2023).
# Biological target: T1, KRAS G12C (Homo sapiens, UniProt P01116, G12C)
# T1 construct: KRAS G12C (amino acid region: 1-169)
# Assay: Inhibitory activity on the KRAS G12C nucleotide (GDP-GTP) exchange reaction
# Assay type: biochemical
# Details: Bodipy FL GDP-bound KRAS G12C 25 nM; preincubation at 25° C. for 4 hours; SOS1 100 nM, GppNHp 1 μM, reaction for 30 minutes
# Method: Test Example 2: Evaluation of Inhibitory Activity of Compounds on the KRAS G12C Nucleotide (GDP-GTP) Exchange Reaction
# The inhibitory activity of compounds on the exchange reaction of GDP into GppNHp in Bodipy (trademark) FL-bound KRAS G12C was examined by fluorescence measurement using human recombinant KRAS G12C and SOS1 proteins.
# For the preparation of KRAS G12C to which Bodipy FL GDP was bound, first, 50 µM KRAS G12C (amino acid region: 1-169) and 1 mM Bodipy FL GDP (Invitrogen, G22360) were incubated for 1 hour in a buffer (20 mM Tris-HCl (pH 7.5), 50 mM NaCl, 1 mM DTT) in ice in the presence of 2.5 mM EDTA. Thereafter, MgCl2 with a final concentration of 10 mM was added, and the mixture was incubated at room temperature for 30 minutes. The protein was allowed to pass through a NAP-5 column to remove free nucleotides and was used for compound evaluation.
# For the measurement of the inhibitory activity of compounds on nucleotide exchange reaction, first, the compound of the disclosure was diluted stepwise with dimethyl sulfoxide (DMSO). Subsequently, a solution of the gradually diluted compound of the disclosure in DMSO (the final concentration of DMSO: 5%) and KRAS G12C (25 nM) bound to Bodipy FL GDP were added to a reaction buffer (20 mM Tris-HCl (pH 7.5), 100 mM NaCl, 1 mM MgCl2, 2 mM DTT, 0.1% Tween20), followed by preincubation at 25° C. for 4 hours. Thereafter, Son of Sevenless Homolog 1 (SOS1, amino acid region: 564-1049) and GppNHp (GMPPNP, Jena Bioscience GmbH, NU-401-50) were added such that their final concentration was 100 nM and 1 μM respectively, followed by reaction for 30 minutes. The change in fluorescence intensity of Bodipy FL (excitation wavelength: 485 nm, fluorescence wavelength: 520 nm) immediately after the start of reaction and after 30 minutes from the start of reaction was standardized. The signal value for only DMSO was determined to be 0% inhibition, and the signal value for no addition of GppNHp was determined to be 100% inhibition. The compound concentration at which 50% inhibition is achieved was determined to be the IC50 (nM) and was calculated.
# T1 sequence (P01116 1-169 isoform P01116-2 G12C): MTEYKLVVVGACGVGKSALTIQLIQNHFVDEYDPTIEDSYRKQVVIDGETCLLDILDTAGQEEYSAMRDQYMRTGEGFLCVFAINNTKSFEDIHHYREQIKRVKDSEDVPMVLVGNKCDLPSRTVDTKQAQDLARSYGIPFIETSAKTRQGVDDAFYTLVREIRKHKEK
row,Structure (SMILES),IC50
1,"C=CC(=O)N1CC(NC(=O)c2c(Cl)nc(CNc3n[nH]c4cc(Cl)c(C(C)(C)C)cc34)n2C(C)C)C1 [Example 35, N-(1-acryloylazetidin-3-yl)-2-(((5-(tert-butyl)-6-chloro-1H-indazol-3-yl)amino)methyl)-4-chloro-1-isopropyl-1H-imidazole-5-carboxamide]",8 nM
2,"[2H]C([2H])(Nc1n[nH]c2cc(Cl)c(C(C)(C)C)cc12)c1nc(C(F)F)c(C(=O)NC2CN(C(=O)C=C)C2)n1C(C)C [Example 36, N-(1-acryloylazetidin-3-yl)-2-(((5-(tert-butyl)-6-chloro-1H-indazol-3-yl)amino)methyl-d2)-4-(difluoromethyl)-1-isopropyl-1H-imidazole-5-carboxamide]",19 nM
3,"C=CC(=O)N1CC(NC(=O)c2cnc(CNc3n[nH]c4cc(Cl)c(C)cc34)n2C)C1 [Example 37, N-(1-acryloylazetidin-3-yl)-2-(((6-chloro-5-methyl-1H-indazol-3-yl)amino)methyl)-1-methyl-1H-imidazole-5-carboxamide]",5480 nM
4,"C=CC(=O)N1CC(NC(=O)c2cnc(CNc3n[nH]c4cc(Cl)c(C=C)cc34)n2C)C1 [Example 38, N-(1-acryloylazetidin-3-yl)-2-(((6-chloro-5-vinyl 1H-indazol-3-yl)amino)methyl)-1-methyl-1H-imidazole-5-carboxamide]",2170 nM
5,"C=CC(=O)N1CC(NC(=O)c2cnc(CNc3n[nH]c4cc(Cl)c(CC)cc34)n2C)C1 [Example 39, N-(1-acryloylazetidin-3-yl)-2-(((6-chloro-5-ethyl-1H-indazol-3-yl)amino)methyl)-1-methyl-1H-imidazole-5-carboxamide]",870 nM
6,"C=CC(=O)N1CC(NC(=O)c2cnc(CNc3n[nH]c4cc(Cl)c(C(C)(C)C)nc34)n2C)C1 [Example 40, N-(1-acryloylazetidin-3-yl)-2-(((5-(tert-butyl)-6-chloro-1H-pyrazolo[4,3-b]pyridin-3-yl)amino)methyl)-1-methyl-1H-imidazole-5-carboxamide]",27 nM
7,"C=CC(=O)N1CC(NC(=O)c2c(C)nc(CNc3n[nH]c4cc(C)c(C(C)(C)C)cc34)n2C)C1 [Example 41, N-(1-acryloylazetidin-3-yl)-2-(((5-(tert-butyl)-6-methyl-1H-indazol-3-yl)amino)methyl)-1,4-dimethyl-1H-imidazole-5-carboxamide]",14 nM
8,"C=CC(=O)N1CC(NC(=O)c2c(C)nc(CNc3n[nH]c4ccc(C(C)(C)C)cc34)n2C(C)C)C1 [Example 42, N-(1-acryloylazetidin-3-yl)-2-(((5-(tert-butyl)-1H-indazol-3-yl)amino)methyl)-1-isopropyl-4-methyl-1H-imidazole-5-carboxamide]",68 nM
9,"C=CC(=O)N1CC(NC(=O)c2c(Cl)nc(CNc3n[nH]c4cc(Cl)c(C(=C)C(F)(F)F)cc34)n2C(C)C)C1 [Example 43, N-(1-acryloylazetidin-3-yl)-4-chloro-2-(((6-chloro-5-(3,3,3-trifluoroprop-1-en-2-yl)-1H-indazol-3-yl)amino)methyl)-1-isopropyl-1H-imidazole-5-carboxamide]",809 nM
10,"C=CC(=O)N1CC(NC(=O)c2c(Cl)nc(CNc3n[nH]c4cc(Cl)c(C5(C(F)(F)F)CC5)cc34)n2C(C)C)C1 [Example 44, N-(1-acryloylazetidin-3-yl)-4-chloro-2-(((6-chloro-5-(-(trifluoromethyl)cyclopropyl)-1H-indazol-3-yl)amino)methyl)-1-isopropyl-1H-imidazole-5-carboxamide]",180 nM
11,"C=CC(=O)N1CC(NC(=O)c2c(Cl)nc(CNc3n[nH]c4cc(Cl)c(C(C)C)cc34)n2C(C)C)C1 [Example 45, N-(1-acryloylazetidin-3-yl)-4-chloro-2-(((6-chloro-5-isopropyl-1H-indazol-3-yl)amino)methyl)-1-isopropyl-1H-imidazole-5-carboxamide]",24 nM
12,"C=CC(=O)NC1CN(C(=O)c2c(C)nc(CNc3n[nH]c4cc(Cl)c(C(C)(C)C)cc34)n2C)C1 [Example 46, N-(1-(2-(((5-(tert-butyl)-6-chloro-1H-indazol-3-yl)amino)methyl)-1,4-dimethyl-1H-imidazole-5-carbonyl)azetidin-3-yl) acrylamide]",92 nM
13,"C=CC(=O)N1CCC(NC(=O)c2c(C)nc(CNc3n[nH]c4cc(Cl)c(C(C)(C)C)cc34)n2C)CC1 [Example 47, N-(1-acryloylpiperidin-4-yl)-2-(((5-(tert-butyl)-6-chloro-1H-indazol-3-yl)amino)methyl)-1,4-dimethyl-1H-imidazole-5-carboxamide]",1730 nM
14,"C=CC(=O)N1CCC(NC(=O)c2c(C)nc(CNc3n[nH]c4cc(Cl)c(C(C)(C)C)cc34)n2C)C1 (centres unmarked) [Example 48, N-(1-acryloylpyrrolidin-3-yl)-2-(((5-(tert-butyl)-6-chloro-1H-indazol-3-yl)amino)methyl)-1,4-dimethyl-1H-imidazole-5-carboxamide]",126 nM
15,"C=CC(=O)N1CC(N(C)C(=O)c2c(C)nc(CNc3n[nH]c4cc(Cl)c(C(C)(C)C)cc34)n2C)C1 [Example 49, N-(1-acryloylazetidin-3-yl)-2-(((5-(tert-butyl)-6-chloro-1H-indazol-3-yl)amino)methyl)-N,1,4-trimethyl-1H-imidazole-5-carboxamide]",208 nM
16,"C=CC(=O)N1CCN(C(=O)c2c(C)nc(CNc3n[nH]c4cc(Cl)c(C(C)(C)C)cc34)n2C)CC1 [Example 50, 1-(4-(2-(((5-(Tert-butyl)-6-chloro-1H-indazol-3-yl)amino)methyl)-1,4-dimethyl-1H-imidazole-5-carbonyl)piperazin-1-yl)prop-2-en-1-one]",4280 nM
17,"C=CC(=O)N(C)C1CN(C(=O)c2c(C)nc(CNc3n[nH]c4cc(Cl)c(C(C)(C)C)cc34)n2C)C1 [Example 51, N-(1-(2-(((5-(tert-butyl)-6-chloro-1H-indazol-3-yl)amino)methyl)-1,4-dimethyl-1H-imidazole-5-carbonyl)azetidin-3-yl)-N-methylacrylamide]",42 nM
18,"C=CC(=O)N1CC(NC(=O)c2c(C)nc(CNc3n[nH]c4cc(Cl)c(C(C)(C)C)cc34)n2C)C(F)(F)C1 (centres unmarked) [Example 53, N-(1-acryloyl-4,4-difluoropyrrolidin-3-yl)-2-(((5-(tert-butyl)-6-chloro-1H-indazol-3-yl)amino)methyl)-1,4-dimethyl-1H-imidazole-5-carboxamide]",42 nM
19,"C=CC(=O)N1C[C@H](NC(=O)c2c(C)nc(CNc3n[nH]c4cc(Cl)c(C(C)(C)C)cc34)n2C)C2(CC2)C1 [Example 54, (R)-N-(5-acryloyl-5-azaspiro[2.4]heptan-7-yl)-2-(((5-(tert-butyl)-6-chloro-1H-indazol-3-yl)amino)methyl)-1,4-dimethyl-1H-imidazole-5-carboxamide]",301 nM
20,"C=CC(=O)N1C[C@@H](C)[C@@H](NC(=O)c2c(C)nc(CNc3n[nH]c4cc(Cl)c(C(C)(C)C)cc34)n2C)C1 [Example 55, N-((3R,4R)-1-acryloyl-4-methylpyrrolidin-3-yl)-2-(((5-(tert-butyl)-6-chloro-1H-indazol-3-yl)amino)methyl)-1,4-dimethyl-1H-imidazole-5-carboxamide]",24 nM
21,"C=CC(=O)N1C[C@@H](O)[C@@H](NC(=O)c2c(C)nc(CNc3n[nH]c4cc(Cl)c(C(C)(C)C)cc34)n2C)C1 [Example 56, N-((3S,4R)-1-acryloyl-4-hydroxypyrrolidin-3-yl)-2-(((5-(tert-butyl)-6-chloro-1H-indazol-3-yl)amino)methyl)-1,4-dimethyl-1H-imidazole-5-carboxamide]",198 nM
22,"C=CC(=O)N1C[C@@H](F)[C@@H](NC(=O)c2c(C)nc(CNc3n[nH]c4cc(Cl)c(C(C)(C)C)cc34)n2C)C1 [Example 57, N-((3S,4R)-1-acryloyl-4-fluoropyrrolidin-3-yl)-2-(((5-(tert-butyl)-6-chloro-1H-indazol-3-yl)amino)methyl)-1,4-dimethyl-1H-imidazole-5-carboxamide]",324 nM
23,"C=CC(=O)N1C[C@@H](CO)[C@@H](NC(=O)c2c(C)nc(CNc3n[nH]c4cc(Cl)c(C(C)(C)C)cc34)n2C)C1 [Example 58, N-((3R,4R)-1-acryloyl-4-(hydroxymethyl)pyrrolidin-3-yl)-2-(((5-(tert-butyl)-6-chloro-1H-indazol-3-yl)amino)methyl)-1,4-dimethyl-1H-imidazole-5-carboxamide]",28 nM
